Data: patent US20060142239A1, “Potassium or sodium salt of (-)-2-(4-hydroxyphenyl)ethyl!-thio-3-'4-{4-'(methzlsulfonzl)oxy !phenoxy}phenyl!propanoic acid and their use in medicine” (priority 2003, published 2006)

Legend:
SC LS-174T tumours = assay: Human LS-174T colon tumour xenografts in Nude mice, tumour growth delay; format: in vivo; settings: ZD6126 200 mg/kg IP, 5-FU 75 mg/kg IV, CPT-11 25 mg/kg IV; for MEDIAN TIME TO REACH TUMOUR SIZE OF 2 CM^3: SC LS-174T xenografts in Nude mice, weekly x3 (Days 1, 8, 15), in combinations ZD6126 2 hours after the other agent; for T - C (DAYS), tumour growth delay: difference in median time to reach 2 cm^3, treatment vs vehicle control, weekly x3
Procedure: Human LS-174T Colon Tumour Xenografts in Nude Mice […] Mice were randomised into 6 groups of 15-18 mice per group. Group 1—control Group 2—received 3 weekly intraperitoneal (IP) injections of ZD6126 at 200 mg/kg on Days 1, 8 and 15 Group 3—received 3 weekly intravenous (IV) injections of 5-FU at 75 mg/kg on Days 1, 8 and 15 Group 4—received 3 weekly IV injections of CPT-11 alone at 25 mg/kg on Days 1, 8 and 15. Group 5—received 3 weekly IP injections of ZD6126 at 200 mg/kg on Days 1, 8 and 15 and 3 weekly IV injections of 5-FU at 75 mg/kg Days 1, 8 and 15. Group 6—received 3 weekly IP injections of ZD6126 at 200 mg/kg on Days 1, 8 and 15 and 3 weekly IV injections of CPT-11 at 25 mg/kg on Days 1, 8 and 15. In groups 5 and 6, when animals received both ZD6126 and CPT-11 or 5-FU on the same day, the ZD6126 was administered 2 hours after the CPT-11 or 5-FU. [table] For all animals, the tumour size was measured twice a week with calipers, and the tumour volume (mm^3) was estimated according to the formula: {[(Square root of Length×Width)×(Length×Width)]×0.5236}. The mice were sacrificed when tumours grew beyond 10% of bodyweight. Treatment efficacy was assessed in terms of the effects on the tumour volumes of treated mice relative to vehicle-treated mice and expressed as growth delay. Growth delay T-(C) was calculated as the difference in the median growth time of the treatment group (T) and the vehicle control group (C) to reach a tumor size of 2 cm^3.

tumour vasculature = settings: reported in Proc. Am. Assoc. Cancer Res. 2000; 41: 329; cited from earlier work

Which “MEDIAN TIME TO REACH TUMOUR SIZE OF 2 CM^3” value (SC LS-174T tumours) does the source give for `O=c1[nH]cc(F)c(=O)[nH]1` [5-FU, 5-fluorouracil] here?
The value was 14 days.

What about the “T - C (DAYS), tumour growth delay” value (SC LS-174T tumours) of the same compound?
The value was 5 days.

Which results are given for `COc1cc2c(c(OC)c1OC)-c1ccc(OP(=O)(O)O)cc1[C@@H](NC(C)=O)CC2` [ZD6126, (5S)-5-(acetylamino)-9,10,11-trimethoxy-6,7-dihydro-5H-dibenzo[a,c]cyclohepten-3-yl dihydrogen phosphate]?
effect on tumour vasculature (tumour vasculature): selectively disrupts tumour vasculature leading to vessel occlusion and extensive tumour necrosis; MEDIAN TIME TO REACH TUMOUR SIZE OF 2 CM^3 (SC LS-174T tumours): 17 days; T - C (DAYS), tumour growth delay (SC LS-174T tumours): 8 days

With `CCc1c2c(nc3ccc(OC(=O)N4CCC(N5CCCCC5)CC4)cc13)-c1cc3c(c(=O)n1C2)COC(=O)[C@]3(O)CC` [CPT-11, irinotecan] as the compound, how does the “MEDIAN TIME TO REACH TUMOUR SIZE OF 2 CM^3” value (SC LS-174T tumours) read?
Its value is 17 days.

What about the “T - C (DAYS), tumour growth delay” value (SC LS-174T tumours) of the same compound?
Its value is 8 days.
